# Test results as given in patent US20100260680A1, “NOVEL BONE MASS INCREASING AGENT” (ORIENTAL YEAST CO., LTD., priority 2007, published 2010).
# Bridges are numbered along the chain shown (N, C = ends). Where no end group is shown, it is not given here.
# What was measured:
# mouse osteoblasts = experiment: ALP activity determination in mouse osteoblasts; assay type: cell-based; settings: 300 μM; differentiation medium; Day 7
# Protocol: Seven days after differentiation, the culture supernatant was removed from each plate and the cells were fixed with an acetone/ethanol solution. The ALP activity was determined using p-nitrophenyl phosphate as a substrate. Specifically, a carbonate buffer (5 mM MgCl2, 50 mM NaHCO3) containing p-nitrophenyl phosphate (Nacalai) (1 mg/mL) was added to each well (100 μL/well), followed by incubation at 37° C. Then, the OD value at 405 nm was determined with the use of a microplate reader (BMG Labtech) for each well.
# For experiments, a goat polyclonal mRANKL antibody (R&D, Saint Cruz), monoclonal mRANKL antibodies ((A): clone 88227 (R&D); (B): clone 12A668) (ALEXIS), and synthetic peptide D were used. As negative controls, goat IgG (ZYMED) and a control peptide were used. Synthetic peptide D and the control peptide used were the same as those used in Example 1. […] ALP activity determination was carried out as in Example 1.
# Newborn mouse calvarias were immersed in an enzyme solution (0.1% collagenase (Wako)+0.2% Dispase (GODO SHUSEI CO., LTD.)), followed by shaking in a thermostatic bath at 37° C. for 5 minutes. The initial floating cell fraction was removed therefrom and a new enzyme solution (10 mL) was added thereto, followed by another instance of shaking in a thermostatic bath at 37° C. for 10 minutes. The above operations were repeated 4 times. […]
# mouse tibia = experiment: RT-PCR of osteogenesis markers in tibia of mice given peptide D; assay type: in vivo; settings: peptide D acetate 10 mg/kg s.c. three times daily for 5 days
# Protocol: Synthetic peptide D subjected to substitution with an acetate was used in this experiment. The synthetic peptide D was dissolved in PBS at a concentration of 1 mg/mL. PBS was administered to a control group.
# Subcutaneous administration of synthetic peptide D in the form of acetate was carried out in a dose of 10 mg/kg at 8:00, 14:00, and 20:00 (three times daily) for 5 days. PBS was administered to the control group. Mice were dissected 12 hour after the completion of administration for 5 days and subjected to exsanguination. Thereafter, the femur and the tibia were collected from each mouse. The whole blood of each mouse was left at room temperature for 1 hour and then centrifuged under conditions of 5000 rpm and 4° C. for 5 min. The serum was collected in a new tube. The femur and the tibia of each mouse were fixed with cold 70% ethanol. Muscles and the like were carefully removed from each tibia. Then, each tibia was washed with PBS and cut into 1-mm fragments with scissors, followed by freezing with liquid nitrogen. […]
# After cDNA synthesis, as in the case of Example 23, PCR was performed using primers specific to mouse alkaline phosphatase (mALP), mouse type I collagen αI chain (mCollagen αI), and mouse osteocalcin (mOC). […] The obtained images were analyzed with a CSAnalyzer and standardized based on the GAPDH expression levels. […]
substance,measurement,setting,value
"peptide D: cyclic peptide of SEQ ID NO: 7, 9 amino acids, two cysteine residues bound via a disulfide bond; binds to RANKL (YCWSQYLCY; disulfide 2-8 (inferred))",ALP activation,mouse osteoblasts,caused an increase in the degree of ALP activation
same,"expression levels of mALP, mCollagen αI and mOC in tibia",mouse tibia,increase in the expression level of each factor
